Results taken from patent publication US20250032451A1, “MICROSPHERE FORMULATIONS COMPRISING ASENAPINE AND METHODS FOR MAKING AND USING THE SAME” (Oakwood Laboratories, LLC, priority 2021, published 2025).
Structures can show the parent of a compound that is named as a salt. Where two headings read alike, the source gives them in different places.

How the values were obtained:
pKa of asenapine maleate = type: physicochemical
[1] = Solubility of asenapine maleate in water and solvents; type: physicochemical

- pKa (pKa of asenapine maleate): 8.64
- solubility ([1]; N-methylpyrrolidone, organic solvent or mixture, NMP, read-out: N-methylpyrrolidone (NMP) solubility): 700 mg/mL
- solubility ([1]; benzyl alcohol, organic solvent or mixture, BA, read-out: benzyl alcohol (BA) solubility): 500 mg/mL
- solubility ([1]; dichloromethane, organic solvent or mixture, DCM, read-out: dichloromethane (DCM) solubility): 324 mg/mL
- solubility ([1]; dimethyl sulfoxide, organic solvent or mixture, DMSO, read-out: dimethyl sulfoxide (DMSO) solubility): 700 mg/mL
- solubility ([1]; ethanol, organic solvent or mixture, EtOH, read-out: ethanol (EtOH) solubility): 100 mg/mL
- solubility ([1]; ethyl acetate, organic solvent or mixture, EA, read-out: ethyl acetate (EA) solubility): 10 mg/mL
- solubility ([1]; water, read-out: water solubility): 3 mg/mL
SMILES: CN1C[C@@H]2c3ccccc3Oc3ccc(Cl)cc3[C@H]2C1 (racemic) [asenapine maleate]
